Test results as given in patent US11918691B2, “Local delivery of antineoplastic particles in combination with systemic delivery of immunotherapeutic agents for the treatment of cancer” (CRITITECH, INC., priority 2017, dated 2024).

Legend:
[1] = tested on: human renal cell adenocarcinoma (786-0 cell line); test: Rat xenograft model of human renal cell adenocarcinoma: histology and immunohistochemistry of residual tumors; format: in vivo, Sprague-Dawley Rag2; Il2rg null (SRG) rat
Procedure: Microscopic Examination: Tissues fixed with 10% NBF were embedded in paraffin. Each tumor was cut into 2-3 pieces and embedded and sectioned together.
The lymphohistiocytic infiltrate density based on assessment of […] and immunohistochemical staining with CD11b, graded semi quantitatively is shown in Table 31.
A review was conducted on the morphologic and immunohistochemical features of a subset of 14 female rats from the renal cell carcinoma study aimed to assess the efficacy of intratumoral NanoDoce® (the total study contained 30 animals). […] The NanoDoce® group was separated into three groups based on the number of administered cycles: group 1 (1 cycle; 3 animals), group 2 (2 cycles; 3 animals), and group 3 (3 cycles; 2 animals).

[2] = tested on: human renal cell adenocarcinoma (786-0 cell line); test: Rat xenograft model of human renal cell adenocarcinoma: tumor volume, body weight, observations; format: in vivo, Sprague-Dawley Rag2; Il2rg null (SRG) rat; settings: IV, 3 weekly cycles
[3] = Rat xenograft model of human renal cell adenocarcinoma: docetaxel concentration in tumor tissue, LC-MS/MS; format: in vivo, Sprague-Dawley Rag2; Il2rg null (SRG) rat; settings: 38 days following the last of three weekly cycles IV (5-[…]); LOQ 1.00 ng/g
Procedure: A calibration curve, prepared in rat control tumor tissue homogenate, was analyzed at the beginning and the end of each analytical run. Two sets of quality control (QC) samples were prepared at four concentration levels (low, mid-1, mid-2 and high) and were used to ensure reliability of the assay.

[4] = tested on: UM-UC-3 bladder cancer cell line (ATCC-CRL-1749) tumors; test: Human bladder cancer (UM-UC-3) mouse xenograft study: tumor volume, body weight, histology; format: in vivo, Hsd:Athymic Nude-Foxn1nu nude mice
Procedure: Tumor volume was determined with calipers. […] Animals were weighed 2×/week.
At day 18 after tumor implant, when average tumor size was between 50-325 mm^3, animals were sorted into five groups with equal average tumor sizes and were treated as shown in Table 25 below.
For IT administration (Vehicle/NANODOCE®), injections (using 27 G, ½″ needle) were administered at three sites within the tumor (total calculated injection volume based on 40 mg/mL NANODOCE® stock and 25 g mouse=63 μL; split evenly across the three injection sites) to maximize distribution of the test formulation throughout the tumor. The second treatments (2nd cycle) occurred 7 days following first treatment (1st cycle) and third treatments (3rd cycle) occurred 14 days following the first treatment. The docetaxel solution IV was administered via the tail vein.
The test formulations were prepared as follows: • Vehicle (Control): Diluted 1 ml of the 1% Polysorbate 80/8% Ethanol in normal saline (0.9% Sodium Chloride for Injection) reconstitution solution with 1.5 mL of normal saline (0.9% Sodium Chloride for Injection, USP). The final concentration of polysorbate 80 was 0.4% and the final concentration of ethanol was 3.2% in the Vehicle. • NANODOCE® Suspension: Added 1 ml of the 1% Polysorbate 80/8% Ethanol in normal saline (0.9% Sodium Chloride for Injection) reconstitution solution into the vial of NANODOCE® particles powder (100 mg/60 cc vial). The mean particle size (number) of the NANODOCE® particles powder was 1.0 micron. Vigorously hand shook the vial with inversions for 1 minute. […] Vortexed to mix.

Structure (SMILES)	Number of animals with <5% of tissue showing necrosis ([1]; IV docetaxel, 2 animals)	Number of animals with Mild lymphohistiocytic infiltrate density (H&E and CD11b IHC, semi quantitative) ([1]; IV docetaxel, 2 animals)	tumor growth compared to vehicle control [2]	animals evaluated with a detectable docetaxel level in tumor tissue [3]	docetaxel level in tumor tissue [3] [ng/g]	histology (H&E) compared with vehicle control ([1]; IV 3 cycles, female rat)	Number of animals with residual viable tumor >10 mm (maximum cross-sectional dimension of viable carcinoma on slide) ([1]; IV docetaxel QWX3, 2 animals evaluated)	residual viable carcinoma nodule, maximum dimension on the slide ([1]; both IV docetaxel animals)	morphologic and immunohistochemical appearance ([1]; two IV docetaxel cases (3 cycles))	histology general observations (H&E) ([4]; Docetaxel Solution IV 3 cycles)	initial animal weight loss compared with NanoDoce IT 1, 2 and 3 cycles ([4]; IV 3 cycles)	signs of peripheral neuropathy compared with NanoDoce IT 3 cycles ([4]; IV 3 cycles)	treatment effect relative to initial tumor size ([4]; IV 3 cycles)	tumor volumes over time ([4]; IV 3 cycles (weekly), 61 days)
CC(=O)O[C@@]12CO[C@@H]1C[C@H](O)[C@@]1(C)C(=O)[C@H](O)C3=C(C)[C@@H](OC(=O)[C@H](O)[C@@H](NC(=O)OC(C)(C)C)c4ccccc4)C[C@@](O)([C@@H](OC(=O)c4ccccc4)[C@H]21)C3(C)C [Doce]	2	2												
CC(=O)OC12CO[C@@H]1C[C@H](O)[C@@]1(C)C(=O)[C@H](O)C3=C(C)[C@@H](OC(=O)[C@H](O)[C@@H](NC(=O)OC(C)(C)C)c4ccccc4)C[C@@](O)([C@@H](OC(=O)c4ccccc4)[C@H]21)C3(C)C (some centres unmarked) [Docetaxel, docetaxel]			partial tumor growth inhibition	one of four	21.8	no difference	2	greater than 10 mm	identical morphologic and immunohistochemical appearance to that seen in the control and IT vehicle groups	many viable appearing tumor masses with some macrophage and occasional lymphocytic response along with some tumor necrosis	generally greater	greater signs of peripheral neuropathy	somewhat effective at treating small tumors, but not very effective in treating large tumors	decreased initially for dosages of NanoDoce® IT 1 cycle and Docetaxel IV 3 cycles, but subsequently increased
